Experimental data reported in patent publication US20090054529A1, “Flow Path Conditioner System” (priority 2005, published 2009).

Tested on: E coli (ATCC 25922, MRI EC 13) and Pseudomonas aeruginosa (ATCC 9027, MRI Ps 10)
Test: Example 4 summary of the 62 test samples (both cultures pooled)
Type: cell-based
Conditions: aqueous mixtures of up to 20% v/v; Example 4 text summary
Procedure: Freshly cultivated cultures of E coli (ATCC 25922, MRI EC 13) and Pseudomonas aeruginosa (ATCC 9027, MRI Ps 10) were suspended in MHB (Mueller-Hinton Broth) nutrient broth at 10^8 cfu/ml (colony-forming units per milliliter), diluted about 1:10 in peptone nutrient broth to about 10^7 cfu/ml. About 1 ml of each of the diluted cultures was added to one each of 9 ml of the corresponding test solutions described below for 5.0 minutes and then diluted in two steps of 1:10 per step. 100 microliters of such diluted culture was then plated onto a conventional nutrient agar plate. Nutrient agar plates were incubated by conventional methods and the number of colonies present on each plate were counted. Positive controls combined freshly cultivated cultures above described with peptone broth were included in each test group and numbers of colonies in control plates were used as a reference.
Now referring to Table 4, the results of combining each test solution as described above with each of the E coli (ATCC 25922, MRI EC 13) and Pseudomonas aeruginosa (ATCC 9027, MRI Ps 10) cultures are summarized using the following quantitative nomenclature: […]

SMILES | effectiveness in reducing microorganisms
CCO [ethanol] | do not appear to be effective
CO [methanol] | do not appear to be effective
